Results reported in publication PMC6630718, “Discovery of Novel UV-Filters with Favorable Safety Profiles in the 5-Arylideneimidazolidine-2,4-dione Derivatives Group” (Molecules, 2019).

Key:
[1] = In vitro photoprotection study of 2% (w/w) macrogol formulations on PMMA plates; settings: for UVA PF / UVA/UVB Ratio / λc (critical wavelength): 2% (w/w) macrogol formulation F1 (Triacetin 4.8%); for SPFin vitro: 2% (w/w) macrogol formulation F1 (Tween 20, PEG-400, PEG-1500, Triacetin 4.8%)
Method in brief: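 Compounds at 2% in macrogol (PEG-400/PEG-1500) formulations, predissolved in triacetin:Tween 20 (1:9) or DMSO; 32.5 mg applied to 25 cm² PMMA plates (5 µm roughness), glycerin-treated plate as reference. Per EN ISO 24443:2012, modified: reflectance absorbance 290–400 nm in 1 nm steps, averaged over 12 scans.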

[2] = Solubility in cosmetic solvents / macrogol formulations; assay type: physicochemical; settings: typical cosmetic solvents / formulations used
Excerpt: The composition of formulations and concentration of tested compounds were based on their limited solubility. N-monosubstituted compounds 2a–2e were insoluble at desirable concentrations in the typical solvents used in cosmetic formulations such as alcohols, triacetin, surfactants, and co-surfactants. To dissolve compounds 2a and 2b before incorporation to the formulation DMSO: Tween 20 (1:9 w/w) was used, for less soluble 2c–2e it was necessary to use DMSO alone as solvent. […] Thus the detailed composition of the formulations is as follows: F1–Tween 20 43.2%, PEG-400 25%, PEG-1500 25%, Triacetin 4.8%, tested compound 2%; F2–Tween 20 43.2%, PEG-400 25%, PEG-1500 25%, DMSO 4.8%, tested compound 2%; F3–PEG-400 25%, PEG-1500 25%, DMSO 48%, tested compound 2%. Considering the disadvantages of currently reported macrogol formulations and the low concentration achieved for the tested compounds (2%), we plan to work on cosmetic emulsions containing the most promising derivatives at higher concentrations as well as required excipients including preservatives, antioxidants, etc. This research will be carried out in the near future.

| Compound | UVA PF [1] | UVA/UVB Ratio [1] | λc (critical wavelength) [1] [nm] | SPFin vitro [1] | solubility (in words) [2] |
| --- | --- | --- | --- | --- | --- |
| CCOC(=O)CN1C(=O)/C(=C/c2ccc(OC)cc2)N(CC(=O)OCC)C1=O [Compound 3b, Diethyl 2,2′-((Z)-4-(4-methoxybenzylidene)-2,5-dioxoimidazolidine-1,3-diyl)diacetate] | 2.59 ± 0.23 | 0.84 ± 0.08 | 366 | 3.07 ± 0.04 | very good solubility |
| CCOC(=O)CN1C(=O)/C(=C/C=C/c2ccc(OC)cc2)N(CC(=O)OCC)C1=O [Compound 4g, Diethyl 2,2′-((Z)-4-((E)-3-(4-methoxyphenyl)allylidene)-2,5-dioxoimidazolidine-1,3-diyl)diacetate] | 6.83 ± 0.05 | 4.50 ± 0.32 | 391 | 1.68 ± 0.04 | – |
